Reference: PubChem BioAssay (NCI)
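Growth conditions: 96-well plates. Treatment: test compound, 48 hours, 5 concentrations. Analysis: linear interpolation between bracketing concentrations; unreached endpoints set to highest concentration. TGI is the concentration that stops growth completely.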

What was measured:
Experiment in all cases: growth of human tumour cells (NCI), 48 h
A498 renal = test system: A498 renal
A549 NSCLC = test system: A549 NSCLC
ACHN renal = test system: ACHN renal
CCRF-CEM leukemia = test system: CCRF-CEM leukemia
DMS 114 small cell lung = test system: DMS 114 small cell lung
EKVX NSCLC = test system: EKVX NSCLC
HCT-116 colon = test system: HCT-116 colon
HL-60(TB) leukemia = test system: HL-60(TB) leukemia
HOP-62 NSCLC = test system: HOP-62 NSCLC
HOP-92 NSCLC = test system: HOP-92 NSCLC
HT29 colon = test system: HT29 colon
IGROV1 ovarian = test system: IGROV1 ovarian
K-562 leukemia = test system: K-562 leukemia
KM12 colon = test system: KM12 colon
M14 melanoma = test system: M14 melanoma
M19-MEL melanoma = test system: M19-MEL melanoma
MOLT-4 leukemia = test system: MOLT-4 leukemia
NCI-H226 lung = test system: NCI-H226 lung
NCI-H23 lung = test system: NCI-H23 lung
NCI-H460 lung = test system: NCI-H460 lung
NCI-H522 lung = test system: NCI-H522 lung
OVCAR-5 ovarian = test system: OVCAR-5 ovarian
OVCAR-8 ovarian = test system: OVCAR-8 ovarian
RXF 393 renal = test system: RXF 393 renal
RXF-631 renal = test system: RXF-631 renal
SF-295 CNS = test system: SF-295 CNS
SK-MEL-28 melanoma = test system: SK-MEL-28 melanoma
SK-OV-3 ovarian = test system: SK-OV-3 ovarian
SNB-19 CNS = test system: SNB-19 CNS
SNB-78 CNS = test system: SNB-78 CNS
SR leukemia = test system: SR leukemia
TK-10 renal = test system: TK-10 renal
U251 CNS = test system: U251 CNS
UACC-257 melanoma = test system: UACC-257 melanoma
UO-31 renal = test system: UO-31 renal
786-0 renal = test system: 786-0 renal
CAKI-1 renal = test system: CAKI-1 renal
COLO 205 colon = test system: COLO 205 colon
DLD-1 colon = test system: DLD-1 colon
HCC-2998 colon = test system: HCC-2998 colon
HCT-15 colon = test system: HCT-15 colon
HOP-18 NSCLC = test system: HOP-18 NSCLC
KM20L2 colon = test system: KM20L2 colon
LOX IMVI melanoma = test system: LOX IMVI melanoma
LXFL 529 NSCLC = test system: LXFL 529 NSCLC
MALME-3M melanoma = test system: MALME-3M melanoma
OVCAR-3 ovarian = test system: OVCAR-3 ovarian
OVCAR-4 ovarian = test system: OVCAR-4 ovarian
RPMI-8226 leukemia = test system: RPMI-8226 leukemia
SF-268 CNS = test system: SF-268 CNS
SF-539 CNS = test system: SF-539 CNS
SK-MEL-2 melanoma = test system: SK-MEL-2 melanoma
SK-MEL-5 melanoma = test system: SK-MEL-5 melanoma
SN12C renal = test system: SN12C renal
SNB-75 CNS = test system: SNB-75 CNS
SW-620 colon = test system: SW-620 colon
UACC-62 melanoma = test system: UACC-62 melanoma
DMS 273 small cell lung = test system: DMS 273 small cell lung
XF 498 CNS = test system: XF 498 CNS

## O=C(/C=C/c1ccc(O)cc1)OC[C@@H](O)COC1OC(CO)C(O)C(O)C1O (stereo partly specified)
A498 renal
  TGI: > 100 µM
A549 NSCLC
  TGI: > 100 µM
ACHN renal
  TGI: > 100 µM
CCRF-CEM leukemia
  TGI: > 100 µM
DMS 114 small cell lung
  TGI: > 100 µM
EKVX NSCLC
  TGI: > 100 µM
HCT-116 colon
  TGI: > 100 µM
HL-60(TB) leukemia
  TGI: > 100 µM
HOP-62 NSCLC
  TGI: > 100 µM
HOP-92 NSCLC
  TGI: > 100 µM
HT29 colon
  TGI: > 100 µM
IGROV1 ovarian
  TGI: > 100 µM
K-562 leukemia
  TGI: > 100 µM
KM12 colon
  TGI: > 100 µM
M14 melanoma
  TGI: > 100 µM
M19-MEL melanoma
  TGI: > 100 µM
MOLT-4 leukemia
  TGI: > 100 µM
NCI-H226 lung
  TGI: > 100 µM
NCI-H23 lung
  TGI: > 100 µM
NCI-H460 lung
  TGI: > 100 µM
NCI-H522 lung
  TGI: > 100 µM
OVCAR-5 ovarian
  TGI: > 100 µM
OVCAR-8 ovarian
  TGI: > 100 µM
RXF 393 renal
  TGI: > 100 µM
RXF-631 renal
  TGI: > 100 µM
SF-295 CNS
  TGI: > 100 µM
SK-MEL-28 melanoma
  TGI: > 100 µM
SK-OV-3 ovarian
  TGI: > 100 µM
SNB-19 CNS
  TGI: > 100 µM
SNB-78 CNS
  TGI: > 100 µM
SR leukemia
  TGI: > 100 µM
TK-10 renal
  TGI: > 100 µM
U251 CNS
  TGI: > 100 µM
UACC-257 melanoma
  TGI: > 100 µM
UO-31 renal
  TGI: > 100 µM

## C=C(C=O)[C@@H]1C2OC(=O)C(=C)[C@@H]2CC(O)[C@@]1(C)CC (stereo partly specified)
786-0 renal
  TGI: 10.2 µM
A498 renal
  TGI: 39.5 µM
A549 NSCLC
  TGI: > 100 µM
ACHN renal
  TGI: 27.1 µM
CAKI-1 renal
  TGI: 24 µM
CCRF-CEM leukemia
  TGI: 6.44 µM
COLO 205 colon
  TGI: 11.7 µM
DLD-1 colon
  TGI: 9.7 µM
DMS 114 small cell lung
  TGI: 36.8 µM
EKVX NSCLC
  TGI: 51.1 µM
HCC-2998 colon
  TGI: 31.1 µM
HCT-116 colon
  TGI: 14.5 µM
HCT-15 colon
  TGI: 24.7 µM
HL-60(TB) leukemia
  TGI: 5.92 µM
HOP-18 NSCLC
  TGI: 41.3 µM
HOP-62 NSCLC
  TGI: > 100 µM
HOP-92 NSCLC
  TGI: 4.19 µM
HT29 colon
  TGI: 21.5 µM
IGROV1 ovarian
  TGI: > 28.7 µM
K-562 leukemia
  TGI: 22.6 µM
KM12 colon
  TGI: 37.2 µM
KM20L2 colon
  TGI: 24.9 µM
LOX IMVI melanoma
  TGI: 34.7 µM
LXFL 529 NSCLC
  TGI: 8.23 µM
M14 melanoma
  TGI: 19.1 µM
M19-MEL melanoma
  TGI: 14.3 µM
MALME-3M melanoma
  TGI: 18.7 µM
MOLT-4 leukemia
  TGI: 9.08 µM
NCI-H226 lung
  TGI: 59.8 µM
NCI-H23 lung
  TGI: 13.3 µM
NCI-H460 lung
  TGI: 51.4 µM
NCI-H522 lung
  TGI: 4.52 µM
OVCAR-3 ovarian
  TGI: 21.3 µM
OVCAR-4 ovarian
  TGI: > 30.2 µM
OVCAR-5 ovarian
  TGI: 32 µM
OVCAR-8 ovarian
  TGI: 20.4 µM
RPMI-8226 leukemia
  TGI: 10 µM
RXF 393 renal
  TGI: 10.3 µM
RXF-631 renal
  TGI: 37.7 µM
SF-268 CNS
  TGI: 71.4 µM
SF-295 CNS
  TGI: 57.2 µM
SF-539 CNS
  TGI: 23.6 µM
SK-MEL-2 melanoma
  TGI: 21.7 µM
SK-MEL-28 melanoma
  TGI: 12.5 µM
SK-MEL-5 melanoma
  TGI: 19.8 µM
SK-OV-3 ovarian
  TGI: 99.9 µM
SN12C renal
  TGI: 32.6 µM
SNB-19 CNS
  TGI: > 89.7 µM
SNB-75 CNS
  TGI: > 100 µM
SNB-78 CNS
  TGI: 24.9 µM
SR leukemia
  TGI: 12.3 µM
SW-620 colon
  TGI: 11.8 µM
TK-10 renal
  TGI: 29.9 µM
U251 CNS
  TGI: 32.4 µM
UACC-257 melanoma
  TGI: 26.9 µM
UACC-62 melanoma
  TGI: 13.9 µM
UO-31 renal
  TGI: 45.8 µM

## O=C(O/N=C1/CCCC/C1=C\c1ccccc1)c1ccccc1
786-0 renal
  TGI: > 100 µM
A498 renal
  TGI: 0.514 µM
A549 NSCLC
  TGI: > 100 µM
ACHN renal
  TGI: > 100 µM
CCRF-CEM leukemia
  TGI: > 100 µM
COLO 205 colon
  TGI: > 100 µM
DLD-1 colon
  TGI: > 100 µM
DMS 114 small cell lung
  TGI: 31.3 µM
DMS 273 small cell lung
  TGI: > 100 µM
EKVX NSCLC
  TGI: > 100 µM
HCC-2998 colon
  TGI: > 100 µM
HCT-116 colon
  TGI: > 100 µM
HCT-15 colon
  TGI: > 100 µM
HL-60(TB) leukemia
  TGI: 40.2 µM
HOP-18 NSCLC
  TGI: > 100 µM
HOP-62 NSCLC
  TGI: > 100 µM
HOP-92 NSCLC
  TGI: > 100 µM
HT29 colon
  TGI: > 100 µM
IGROV1 ovarian
  TGI: 0.78 µM
K-562 leukemia
  TGI: 41 µM
KM12 colon
  TGI: > 100 µM
KM20L2 colon
  TGI: > 100 µM
LOX IMVI melanoma
  TGI: 88.8 µM
LXFL 529 NSCLC
  TGI: > 100 µM
M14 melanoma
  TGI: > 100 µM
M19-MEL melanoma
  TGI: > 100 µM
MALME-3M melanoma
  TGI: > 100 µM
MOLT-4 leukemia
  TGI: 49 µM
NCI-H226 lung
  TGI: > 100 µM
NCI-H23 lung
  TGI: > 100 µM
NCI-H522 lung
  TGI: > 100 µM
OVCAR-3 ovarian
  TGI: > 100 µM
OVCAR-5 ovarian
  TGI: > 100 µM
OVCAR-8 ovarian
  TGI: > 100 µM
RPMI-8226 leukemia
  TGI: > 100 µM
RXF 393 renal
  TGI: > 100 µM
SF-268 CNS
  TGI: > 100 µM
SF-295 CNS
  TGI: > 100 µM
SF-539 CNS
  TGI: > 100 µM
SK-MEL-2 melanoma
  TGI: > 100 µM
SK-MEL-28 melanoma
  TGI: > 100 µM
SK-MEL-5 melanoma
  TGI: 0.34 µM
SK-OV-3 ovarian
  TGI: > 100 µM
SN12C renal
  TGI: > 100 µM
SNB-19 CNS
  TGI: > 100 µM
SNB-75 CNS
  TGI: > 100 µM
SR leukemia
  TGI: > 100 µM
SW-620 colon
  TGI: > 100 µM
TK-10 renal
  TGI: > 100 µM
U251 CNS
  TGI: > 100 µM
UACC-257 melanoma
  TGI: > 100 µM
UACC-62 melanoma
  TGI: > 100 µM
UO-31 renal
  TGI: > 100 µM
XF 498 CNS
  TGI: > 100 µM
